Here are results for three molecules from the NIST ThermoML archive (doi:10.1021/acs.jced.5b01024).

Numbers after ± are expanded uncertainties.

This series is described as follows: refractive index (Na D-line) (dimensionless). As to conditions: 294.15 K; 100 kPa; Liquid; Standard Abbe refractometry.

As usually defined, the refractive index is a measure of how strongly the sample bends light.

Consider `O` [water], for which the refractive index is on record as 1.33285 ± 0.00042.

Take `CCCO` [propan-1-ol]: the refractive index is 1.3846 ± 0.00042.

Consider `CCCCO` [butan-1-ol], for which the refractive index is recorded as 1.39782 ± 0.00042.
